Patent US6335339B1, “Triazine antiviral compounds” (Scriptgen Pharmaceuticals, Inc., priority 1998, dated 2002)

Columns and labels:
2.2.15 cells = assay: neutral red dye uptake cytotoxicity; format: cell-based; conditions: 9 days treatment, read-out: 50% Cell Death CC50
Protocol: Further, the antiviral effect of any compound must be measured against its toxicity. Cytotoxicity is measured by the neutral red uptake method using the same cells used for antiviral activity.
2b. Compounds were prepared for toxicity treatment as follows: For each compound, a total of 4 concentrations were examined. This required 9 sets of 4 sterile, 1.1 ml minitubes (36 tubes per compound). Into the first tube of each set, sufficient compound was aliquoted to make up 465 μl of the highest test concentration. The other tubes were left empty. The tubes were covered with the rack lids, and stored at −20° C. or at an appropriate temperature. Tubes for the last day of treatment for toxicity testing contain the same amount of compound as used the previous days (not 3xas for the antiviral assays).
3b. The cytotoxicity of test compounds was analyzed in a 3.3-fold dilution series as follows. […] (155 μl×3) of RP2 were added to the first tube (containing the aliquot of compound) and 310 μL (155 μl×2) RP2 to each of the 3 remaining tubes. 150 μl of test compound-containing medium were serially transferred from the first tube to the other 3 tubes.
5. A single plate was used for the toxicity treatments for each test compound (up to 7 compounds per plates since the top row were reserved for untreated cells on every toxicity plate). To initiate the treatments, the culture medium was removed, and 100 μl of each dilution of every compound were added to each of 3 wells using a configuration similar to that shown above for the antiviral treatments. The untreated cells received 100 μl RP2 per well. Treatment was repeated daily for 9 days.
The antiviral effect of any compound was evaluated relative to its toxicity. Cells were seeded and treated following the guidelines above, after which a neutral red dye uptake assay was performed to assess toxicity as described below. Other assays of cytotoxicity (e.g., MTT) can be substituted for the procedure described below. Note that this procedure assesses toxicity under culture and treatment conditions which are identical to those used for the antiviral analyses, thereby permitting a determination as to whether the reduction in virus production due to a specific antiviral effect or due to a cytotoxic effect on the host cell. Since the cultures, by necessity, are at confluence, the cytotoxic effects of the test compounds will probably be reduced relative to the cytotoxic effects that would be expected for actively dividing cells.
1. Cultures were treated with test compounds on the designated toxicity plates as described above.
2. The culture medium was carefully removed 24 hours following the 9th day of treatment. The monolayer was fully removed in the top left three wells (row A, col. 1-3). These wells were used as “blanks” for the plate reader.
3. 100 μl DPBS (containing 0.01% neutral red dye) were added to each well, including the empty wells, and Incubated in the tissue culture incubator for 30 minutes.
4. The dye was removed carefully and gently, using a multichannel pipetman since the monolayers can become fragile after incubation with neutral red dye. 200 μl DPBS were added to all the wells taking care not to displace the monolayers. The DPBS was removed and 100 μl 50% EtOH/1% glacial acetic acid (in H2O) were added to each well. The plates were mixed for 15 minutes on an orbital platform shaker (120-150 RPM) to allow for full extraction of the dye from the cells.
5. Optical absorbance at 510 nm was read in an ELISA type plate reader, using the 3 empty wells to set the background. An average absorbance value was calculated for the 9 untreated cultures on a plate, and the absorbance of dye for the treated cultures on the same plate was expressed as a percentage of that value. This procedure was repeated for each individual plate. […]

HBV = assay: antiviral assay in 2.2.15 cells producing HBV (virion DNA dot blot); format: cell-based, Hepatitis B virus; conditions: extra-cellular virus reduced by 50%; 2.2.15 cells, 9 days treatment; read-out: Antiviral EC50
From the text: Several cell lines and cell culture assays have been developed to identify potential therapeutics effective against chronic HBV infection. One of these cell lines, 2.2.15, has been used in a standardized assay that has repeatedly proven to be an accurate model of chronic cellular HBV replication and a predictive model of antiviral response for chronic hepadnaviral infection in vivo. 2.2.15 cells contain copies of the complete HBV genome integrated into the cell's genome, and 2.2.15 cells are not susceptible to infection by HBV. (Sells, M. A. et al., J. Virol. 62 (8): 2836-2844 (1988)). These cells express HBV genes producing complete HBV particles capable of infecting chimpanzees (Acs, G. et al., Proc. Natl. Acad. Sci. USA 84 (13): 4641-4644 (1987)). Briefly, 2.2.15 cells are cultured and pretreated with a test compound for about 9 days, at which point the media are harvested and subjected to dot-blot hybridization to detect HBV virion DNA.
The antiviral activity of the compounds of the present invention is measured by the methods described in Korba and Gering, Antiviral Res. 19: 55-70 (1992).
This assay format is well suited to the screening of test compounds for potential antiviral activity. The assay provides a threshold assessment of antiviral activity by measuring (i) the levels of HBV virion release from the cells and (ii) cytotoxicity. Two rows of cells were used for each compound, and 4 rows for the assay controls (two for untreated, and two for positive antiviral control, e.g., 3TC). After incubating in the presence of test compound for 9 days, the media were harvested, transferred to 96-well U-bottom plates, and centrifuged. The supernatants were transferred to tubes for dot blot hybridization analysis of HBV virion DNA. The medium was aspirated off of the toxicity plates and discarded. Toxicity plates were then incubated with neutral red dye (MTT can also be used if preferred), washed with DPBS, developed with an acetic acid-ethanol solution, and assayed in a plate reader.
1. 2.2.15 cells were seeded into 96-well, flat bottom tissue culture plates as described above. Duplicate plates were used for the antiviral treatments for each test compound (up to 8 compounds per pair of plates); after three to four days, cells were confluent and medium was yellow in color; the medium was removed and replaced with 100 μl RP2 24 hours before the beginning of drug treatment.
i) For each compound, a total of 4 concentrations were examined; this required 9 sets of 4 sterile, 1.1 ml minitubes (36 tubes per compound). Into the first tube of each set, sufficient compound was aliquoted to make up 700 μl (for 10-fold dilution series) or 980 μl (for 3.3-fold dilution series) of the highest test concentration; the other tubes were left empty.
i) For a 10-fold dilution series: to the first (compound containing) tube was added 700 μl (175 μl×4). 630 μl (210 μl×3) RP2 culture medium was added to the remaining 3 tubes. The first tube was mixed by pipeting up and down with a pipetman (a multichannel pipetman permits the simultaneous processing of multiple compounds). 70 μl of test compound-containing medium were serially transferred from the first tube to the other 3 tubes, taking care to thoroughly mix each tube before transferring medium;
b) 100 μl of each dilution of every compound was added to each of 6 wells (3 wells per plate) using the configuration listed below as an example. The lowest concentration was added first, and the same tips were used to add the higher concentrations. The untreated cells received 100 μl RP2 per well (untreated cells have to be carried on only one pair of the antiviral assay plates).
c) Treatments were repeated daily for 9 days. For the last day of treatment, and additional 200 μl RP2 were added to each well of the antiviral assay plates after the wells are treated with the test compounds (a total of 300 μl medium per well).
6. […]

| SMILES | CC50 (2.2.15 cells) | EC50 (HBV) |
| --- | --- | --- |
| Oc1ccc(Cl)cc1C=NNc1nc(Nc2ccc3ccccc3c2)nc(N2CCOCC2)n1 [Compound 160] | > 300 µM | 0.42 µM |
| COc1c(C=NNc2nc(NCc3ccccc3)nc(Nc3ccccc3)n2)cccc1[N+](=O)[O-] [Compound 162] | 436 µM | 0.923 µM |
| Brc1cccc(C=NNc2nc(Nc3ccccc3)nc(N3CCOCC3)n2)c1 [Compound 163] | 150 µM | 0.958 µM |
| COc1ccc(Nc2nc(NN=Cc3ccc(O)cc3O)nc(N3CCOCC3)n2)cc1 [Compound 164] | 201 µM | 0.863 µM |
| COc1ccc(C=NNc2nc(NCc3ccccc3)nc(Nc3ccccc3)n2)cc1 [Compound 165] | > 300 µM | 3.8 µM |
| Ic1cccc(C=NNc2nc(Nc3ccc4ccccc4c3)nc(N3CCOCC3)n2)c1 [Compound 166] | 252 µM | 1.4 µM |
| Oc1ccc2ccccc2c1C=NNc1nc(Nc2cccc3ccccc23)nc(N2CCOCC2)n1 [Compound 167] | 161 µM | 1.7 µM |
| COc1c(C=NNc2nc(Nc3ccccc3)nc(Nc3ccccc3)n2)ccc(Br)c1O [Compound 168] | > 300 µM | 0.7 µM |
| Oc1ccccc1C=NNc1nc(Nc2ccccc2)nc(N2CCCCC2)n1 [Compound 169] | > 300 µM | 2.5 µM |
| COc1cccc(C=NNc2nc(Nc3ccccc3)nc(N3CCCC3)n2)c1O [Compound 170] | 499 µM | 4 µM |
| CCN(CC)c1nc(NN=Cc2c(O)ccc3ccccc23)nc(Nc2ccccc2)n1 [Compound 171] | 174 µM | 5 µM |
| Cc1cccc(C(=O)Oc2ccc(C=NNc3nc(N4CCCCC4)nc(N4CCCCC4)n3)cc2)c1 [Compound 181] | > 300 µM | 6 µM |
| CC(=NNc1nc(NCc2ccccc2)nc(Nc2ccccc2)n1)c1ccc([N+](=O)[O-])cc1 [Compound 182] | > 300 µM | 54 µM |
| CC(=NNc1nc(Nc2ccccc2)nc(N2CCCC2)n1)c1ccc([N+](=O)[O-])cc1 [Compound 183] | > 300 µM | 52 µM |
| Cc1ccc(Nc2nc(NCc3ccccc3)nc(NN=Cc3ccc(F)cc3F)n2)cc1C [Compound 191] | 836 µM | > 100 µM |
| CN(C)c1nc(NCc2ccccc2)nc(NCc2cccs2)n1 [Compound 192] | 739 µM | > 100 µM |
| COc1c(C=NNc2nc(N3CCCC3)nc(N3CCOCC3)n2)cccc1[N+](=O)[O-] [Compound 193] | 666 µM | > 100 µM |
| Cc1ccc(Nc2nc(NCc3ccccc3)nc(Nc3ccc([N+](=O)[O-])cc3)n2)cc1C [Compound 194] | 626 µM | > 100 µM |
| COc1ccccc1C=NNc1nc(NCc2ccccc2)nc(Nc2ccccc2)n1 [Compound 195] | 400 µM | > 100 µM |

| SMILES | CC50 (2.2.15 cells) | EC50 (HBV) |
| --- | --- | --- |
| Cc1ccc(Nc2nc(NN=Cc3ccc(Cl)cc3)nc(N3CCOCC3)n2)cc1Cl [Compound 196] | 381 µM | > 100 µM |
| COc1ccc(Nc2nc(NN=Cc3cc(Br)cc(Br)c3O)nc(N3CCOCC3)n2)cc1 [Compound 200] | 309 µM | > 100 µM |
| Fc1cccc(C=NNc2nc(Nc3ccccc3)nc(N3CCCC3)n2)c1 [Compound 201] | > 300 µM | > 100 µM |
| CCN(CC)c1nc(Nc2cccc(Br)c2)nc(Nc2cc(C)ccc2C)n1 [Compound 202] | > 300 µM | > 100 µM |
| O=C(CSc1nc(SCC(=O)Nc2ccccc2C(F)(F)F)nc(SCC(=O)Nc2ccccc2C(F)(F)F)n1)Nc1ccccc1C(F)(F)F [Compound 212] | > 300 µM | > 100 µM |
| C(=Cc1ccccc1)C=NNc1nc(Nc2ccccc2)nc(N2CCCC2)n1 [Compound 213] | > 300 µM | > 100 µM |
| CCN(CC)c1nc(NN=Cc2ccc(Cl)c([N+](=O)[O-])c2)nc(Nc2cc(C)ccc2C)n1 [Compound 214] | > 300 µM | > 100 µM |
| Clc1ccc(C=NNc2nc(Nc3ccccc3)nc(N3CCCC3)n2)cc1 [Compound 218] | > 300 µM | > 100 µM |
| Cc1ccc(Nc2nc(NCc3ccccc3)nc(NN=Cc3cc(Br)cc(Br)c3O)n2)cc1C [Compound 219] | > 300 µM | > 100 µM |
| O=C(NNc1nc(Nc2ccccc2)nc(Nc2cccc(C(F)(F)F)c2)n1)c1cccc(Br)c1 [Compound 220] | > 300 µM | > 100 µM |
| CN(C)c1nc(NCc2ccccc2)nc(NN=Cc2ccc(Cl)cc2Cl)n1 [Compound 224] | > 300 µM | > 100 µM |
| COc1ccc(Nc2nc(NCc3cccc([N+](=O)[O-])c3)nc(NCc3cc(F)ccc3F)n2)cc1OC [Compound 225] | 281 µM | > 100 µM |
| Cc1ccc(Nc2nc(NCc3ccccc3)nc(NN=Cc3cc(Cl)ccc3O)n2)cc1C [Compound 226] | 280 µM | > 100 µM |
| CC(=NNc1nc(Nc2ccccc2)nc(N2CCCC2)n1)c1ccc(F)cc1 [Compound 227] | 247 µM | > 100 µM |
| Cc1ccc(Nc2nc(NCc3ccccc3)nc(NN=Cc3ccccc3F)n2)cc1C [Compound 228] | 243 µM | > 100 µM |
| Cc1ccc(Nc2nc(NN=Cc3cccc([N+](=O)[O-])c3)nc(Nc3ccccc3)n2)c(C)c1 [Compound 229] | 237 µM | > 100 µM |
| Brc1ccc(Nc2nc(NCc3ccccc3)nc(Nc3ccc(Br)cc3)n2)cc1 [Compound 230] | 231 µM | > 100 µM |
| O=[N+]([O-])c1ccc(Nc2nc(NCc3ccccc3)nc(N3CCOCC3)n2)cc1 [Compound 231] | 218 µM | > 100 µM |
